Target: T1, human recombinant Yes [a.a. 2–543 (end)] (Homo sapiens, UniProt P07947)
T1 construct: human recombinant Yes [a.a; 2–543 (end)]; purchased BPS Bioscience 40488
Assay: ADP-Glo kinase assay, inhibition rates of Yes phosphorylation activity (first and second screening)
Type: biochemical
Conditions: 10 μmol L−1 compound; for First screening IR (inhibition rate): mean of n = 4 wells; for Second screening IR (inhibition rate): dissolved from fresh powder, n = 4
Outline: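 ADP-Glo luminescence measured inhibition of human recombinant Yes (a.a. 2–543) phosphorylation activity. In the first screen, each compound ran in 4 wells and inhibition rates were averaged. The second screen retested hits as compounds dissolved from fresh powder.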

T1 sequence (P07947 2-543): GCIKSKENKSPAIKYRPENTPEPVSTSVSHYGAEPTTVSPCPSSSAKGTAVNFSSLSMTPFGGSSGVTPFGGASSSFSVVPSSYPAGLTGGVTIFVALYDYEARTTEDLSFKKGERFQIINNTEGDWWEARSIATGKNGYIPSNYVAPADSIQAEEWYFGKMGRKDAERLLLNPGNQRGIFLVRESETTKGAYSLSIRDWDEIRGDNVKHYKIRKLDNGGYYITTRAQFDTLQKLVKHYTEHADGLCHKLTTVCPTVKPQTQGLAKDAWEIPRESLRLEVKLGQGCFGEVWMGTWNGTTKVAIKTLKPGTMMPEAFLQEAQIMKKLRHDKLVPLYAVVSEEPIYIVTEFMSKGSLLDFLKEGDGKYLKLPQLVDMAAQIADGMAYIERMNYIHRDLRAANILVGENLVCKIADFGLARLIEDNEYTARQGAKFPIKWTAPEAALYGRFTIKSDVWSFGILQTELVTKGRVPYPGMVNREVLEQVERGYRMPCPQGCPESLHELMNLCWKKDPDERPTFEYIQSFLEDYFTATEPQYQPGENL

Row | First screening IR (inhibition rate) [%] | Second screening IR (inhibition rate) [%] | SMILES
1 | 47 | -4 | COc1ccc(OC)c2c1CN(c1nc(CN3CCOCC3)nc3sc(C)c(C)c13)CC2O (centres unmarked) [Compound Z128154998]
2 | 3 | – | O=C(Nc1nc2ccccc2[nH]1)c1cc(-c2ccccc2)n[nH]1 [Compound Z184538526]
3 | 13 | – | CN1CCN(C(=O)c2ccc(-c3cc(F)c(F)c(F)c3)cc2)C(CN)C1.Cl (centres unmarked) [Compound Z1457890473]
4 | -9 | – | Oc1[nH]c2ccc(Br)cc2c1N=Nc1ccccn1 [Compound Z49660185]
5 | 41 | 18 | c1ccc(Cn2cccn2)c(CNc2cncc(-n3cccn3)n2)c1 [Compound Z432289626]
6 | 54 | – | Cc1cc(S(=O)(=O)Nc2cc(-c3ccncc3)nn2C)ccc1Br [Compound Z1270579889]
7 | 20 | – | Cc1onc(-c2c(F)cccc2Cl)c1C(=O)OCc1nc(-c2cccs2)no1 [Compound Z51122297]
8 | 18 | – | COc1cccc2cc(C(=O)N3CCN(S(=O)(=O)c4ccccc4C(F)(F)F)CC3)c(=O)oc12 [Compound Z29531247]
9 | 12 | – | Cc1ccc(C)c(CS(=O)(=O)CCCS(=O)(=O)N(C)C)c1 [Compound Z1127660495]
10 | 5 | – | O=C(NCc1nc2ccccc2[nH]1)c1ccc(OCc2ccccc2)cc1 [Compound Z26780414]
11 | 15 | – | Cc1ccc(C)c(-n2c(=O)/c(=C/c3ccc(OC(F)F)cc3)s/c2=C(/C#N)C(=O)NCCN2CCOCC2)c1 [Compound Z47852683]
12 | 4 | – | C=CCN(CC=C)S(=O)(=O)c1cc(C)cc(S(C)(=O)=O)c1C [Compound Z1145185872]
13 | 20 | – | Cc1nc2n(n1)CC(NCc1cn[nH]c1-c1ccc(C)o1)CC2 (centres unmarked) [Compound Z1051950052]
14 | 6 | – | Cc1cc(S(C)(=O)=O)c(C)c(S(=O)(=O)N2CCCCCC2)c1 [Compound Z1145185709]
15 | 42 | 7 | CC(C)(C)c1nccc(Nc2cn[nH]c2)n1 [Compound Z1317605702]
16 | 1 | – | CC(=O)c1ccc(N2CCN(CC(=O)c3cc(C)[nH]c3C)CC2)c(F)c1 [Compound Z238811284]
17 | 4 | – | COc1cc(/C=C2/C(=O)Nc3ccc(Cl)cc32)cc(Cl)c1OC(F)F [Compound Z44304760]
18 | -9 | – | Cc1occc1S(=O)(=O)CCCS(=O)(=O)C(C)C [Compound Z1822689954]
19 | -7 | – | Cc1ccc(-n2cnc3c2CCNC3)cc1 [Compound Z1250487636]
20 | 63 | -5 | O=C1CCc2cc(OC(=O)c3cn(-c4ccccc4)nc3-c3cccs3)ccc2N1 [Compound Z764721614]
21 | 17 | – | Cc1nn(C2CCS(=O)(=O)C2)c2nc(C3CC3)cc(C(=O)Nc3ccc(C(N)=O)cc3)c12 (centres unmarked) [Compound Z60779201]
22 | -5 | – | CCn1ncc2c(C(=O)N(C)Cc3ccc(SC)cc3)cc(-c3ccccc3)nc21 [Compound Z224588706]
23 | 27 | – | CC1CCCC(NC(=S)Nc2cccc(S(=O)(=O)N(C)C)c2)C1C (centres unmarked) [Compound Z45768220]

Row | First screening IR (inhibition rate) [%] | Second screening IR (inhibition rate) [%] | SMILES
24 | -10 | – | Cc1cc(COC(=O)c2cc(-c3ccccc3)nc3c2cnn3Cc2ccccc2)no1 [Compound Z228519880]
25 | 17 | – | CC(C)c1nc2n(n1)CC(NC(=O)Nc1cc(-c3ccccc3)ns1)CC2 (centres unmarked) [Compound Z1327803154]
26 | 8 | – | COc1ccccc1C(=O)Nc1ccc(Nc2nc(-c3ccccc3)c3cc(C)ccc3n2)cc1 [Compound Z111781008]
27 | 25 | – | Cc1c(C(=O)N2CCN(C(=O)C3CCS(=O)(=O)C3)CC2)[nH]c2c1C(=O)CC(C)(C)C2 (centres unmarked) [Compound Z164965524]
28 | -2 | – | CC(C)CNC(=O)c1c(N)n(CCc2ccccc2)c2nc3ccccc3nc12 [Compound Z1033301058]
29 | 8 | – | O=C(OCc1nc(-c2cccs2)no1)c1c(F)cccc1Cl [Compound Z51180604]
30 | 48 | – | COc1cccc(-c2cc(-c3ccc(Cl)cc3)c3ccccc3n2)c1 [Compound Z1844441844]
31 | 0 | – | CC(Sc1nnc(-c2c[nH]c3ccccc23)n1CC1CCCO1)C(=O)Nc1ccc(N(C)C)cc1 (centres unmarked) [Compound Z18647898]
32 | 5 | – | Cl.Fc1ccccc1-c1cc(-c2ccccc2)c2ccccc2n1 [Compound Z48951009]
33 | 15 | – | Cl.Fc1ccccc1-c1c2c(nc3ccc(Cl)cc13)-c1ccccc1CC2 [Compound Z48955803]
34 | -2 | – | O=C(NCc1ccc(-n2cccn2)nc1)c1cc(-c2ccco2)[nH]n1 [Compound Z317736476]
35 | 9 | – | COc1ccc(OC)c(C2CCCN2C(=O)CSc2nnc(Nc3ccccc3C)s2)c1 (centres unmarked) [Compound Z96342510]
36 | 1 | – | CCCCn1c(CN2CCN(C(=O)C3CCCO3)CC2)nc2c1c(=O)[nH]c(=O)n2Cc1ccccc1 (centres unmarked) [Compound Z105965792]
37 | 17 | – | NC(=O)C1(CNC(=O)c2cc3c(cc2O)CCCC3)CCOCC1 [Compound Z856541214]
38 | 9 | – | CCN(Cc1ccc(Cl)s1)C(=O)NCc1ccnc(N2CCN(C)CC2)c1 [Compound Z508129336]
39 | -12 | – | COc1ccc2cc(-c3cc(C(=O)OCC(=O)Nc4cccc(C)c4)c4ccccc4n3)ccc2c1 [Compound Z18792577]
40 | 1 | – | CC(C)c1ccc(Sc2ccc(N3CCC(C(=O)O)CC3)nn2)cc1 [Compound Z1863492097]
41 | 5 | – | CCCCN(C1CCS(=O)(=O)C1)S(=O)(=O)c1ccc(Br)cc1Cl (centres unmarked) [Compound Z223263980]
42 | 16 | – | O=C(CN(Cc1ccccc1)S(=O)(=O)c1ccc(Cl)cc1)N1CCN(c2ccccn2)CC1 [Compound Z26735553]
43 | -11 | – | Fc1ccc(-c2n[nH]c(CNc3cncc(Cl)n3)n2)cc1 [Compound Z1309541011]
44 | -4 | – | CCN(c1ccc(-c2csc(Nc3ccc(OC)cc3)n2)cc1)S(C)(=O)=O [Compound Z64779311]
45 | 9 | – | Cc1nc(N(C)C(C)c2ccc([S+](C)[O-])cc2)c2cnn(C)c2n1 (centres unmarked) [Compound Z1324037636]
46 | 6 | – | COc1cc(C(=O)Nc2ccc3c(c2)NC(=O)C(C)O3)cc2c1OC(C)C2 (centres unmarked) [Compound Z167364352]

Row | First screening IR (inhibition rate) [%] | Second screening IR (inhibition rate) [%] | SMILES
47 | -7 | – | Cc1cccc(-c2[nH]ncc2CNC(C)C(C)n2cccn2)c1 (centres unmarked) [Compound Z1143064210]
48 | 49 | -4 | Cn1c(=O)n(CCN2CCOCC2)c(=O)c2c1nc1n2CCN1c1ccc(Oc2ccccc2)cc1 [Compound Z223838602]
49 | 7 | – | Cc1cc(C(=O)Nc2ccc(N3CCNC(=O)C3)c(Cl)c2)c2ccccc2n1 [Compound Z421986674]
50 | 31 | 16 | Cc1c(/C=C2/C(=O)Nc3ccc(F)cc32)cnn1C [Compound Z1517268554]
51 | -35 | – | Cc1cc(NCc2nnc(C)n2C)c(C(N)=O)cc1F [Compound Z1618388683]
52 | -3 | – | CC(C)(C)c1[nH]ncc1/C=C1/CCn2c1nc1cc(Cl)ccc1c2=O [Compound Z821199838]
53 | 4 | – | CC1CCc2c(sc3nc(-c4cccnc4)nc(N4CCCCCCC4)c23)C1 (centres unmarked) [Compound Z31262492]
54 | 36 | -13 | Cl.Clc1ccc(-c2cc(-c3ccccc3)c3cc(Cl)ccc3n2)cc1 [Compound Z48950819]
55 | 4 | – | Cc1ccc(N(C(=O)c2ccc(C(C)(C)C)cc2)C2C=CS(=O)(=O)C2)cc1 (centres unmarked) [Compound Z56970107]
56 | 6 | – | CC1CN(C(C)(C)CNC(=O)c2ccc(NS(=O)(=O)c3ccccc3)cc2)CC(C)O1 (centres unmarked) [Compound Z226329302]
57 | -11 | – | COCCN1C(=O)/C(=C/c2c(N3CCN(Cc4ccccc4)CC3)nc3ccc(C)cn3c2=O)SC1=S [Compound Z56850824]
58 | 2 | – | CCN(C1CCS(=O)(=O)C1)S(=O)(=O)c1ccc(Br)cc1Cl (centres unmarked) [Compound Z45467139]
59 | 18 | – | CC1CC(C)(C)CC2(C1)NC(=O)N(CN1CCN(c3ccc(C(F)(F)F)cn3)CC1)C2=O (centres unmarked) [Compound Z44255985]
60 | -22 | – | CCCCn1c(CN2CCN(C(=O)c3ccco3)CC2)nc2c1c(=O)[nH]c(=O)n2Cc1ccccc1 [Compound Z104777504]
61 | 21 | – | O=C(c1cn(Cc2ccccc2)nc1-c1cccnc1)N1CCN(c2ccccn2)CC1 [Compound Z26735071]
62 | 7 | – | O=C(CSc1nnc(-c2ccc3c(c2)OCO3)n1-c1ccccc1)c1ccc[nH]1 [Compound Z16254229]
63 | -5 | – | O=C(CN1CCSc2ccccc21)N1CCN(S(=O)(=O)c2ccc(Cl)s2)CC1 [Compound Z105335628]
64 | 6 | – | Cc1cccc(NCC2CCN(c3ncnc4c3cnn4C)C2)n1 (centres unmarked) [Compound Z990436502]
65 | -5 | – | O=C(CSc1nnc(COc2ccccc2Cl)n1-c1ccccc1)N1CCc2ccccc2C1 [Compound Z20151781]
66 | 48 | – | Cc1cc(COC(=O)c2cc(-c3ccc4c(c3)OCCO4)nc3c2cnn3C(C)C)on1 [Compound Z227321660]
67 | -4 | – | CN(C1CCCCC1)S(=O)(=O)N1CCS(=O)(=O)CC1 [Compound Z1082836720]

Reference: paper PMC5607274, “An iterative compound screening contest method for identifying target protein inhibitors using the tyrosine-protein kinase Yes” (Scientific Reports, 2017)
